Measured values from patent US20230285556A1, “METHODS AND COMPOSITIONS FOR TREATING CANCER” (Omeros Corporation, priority 2021, published 2023).
pEC50: −log10 of the molar value. “And” between values parts separate entries of the source, which are not always exact repeats. Equal entries are not always repeated.

What was measured:
GPR174 [1] = target: T1, GPR174 (Homo sapiens, UniProt Q9BXC1); assay: CRA (EC50) of GPR174 inhibitor compounds, tested as described in US 20200276190; format: cell-based; details: multiple values = separate experiments
Experimental: (§1) Where present, multiple EC50 values correspond to values obtained in separate experiments. […] The activity of the compounds was tested as described in US 20200276190, the disclosure of which is incorporated herein by reference.

GPR174 [2] = target: T1, GPR174; assay: Human GPR174 CRE activity / Gs signaling; format: cell-based
Experimental: as §1

human CD8 T cells [3] = assay: Example 3: human CD8 T cell 10-day expansion with IL-7+IL-15 and inhibitors, IL-2 after restimulation; format: cell-based; details: 300 nM Compound #10, 500 nM Compound #49, 100 nM ZM-241385, 18 hours restimulation
Experimental: Purified human CD8 T cells were cultured in 24-well plates with the following conditions per well: • 2 mL X-VIVO™ 15 media (Lonza) • 1 million human CD8 T cells • 2 million Human T-Activator CD3/CD28 Dynabeads® (ThermoFisher) • 10 ng/mL human IL-7 (R&D Systems) • 10 ng/mL human IL-15 (R&D Systems)
and the following individual conditions for FIG. 4: • 1. DMSO vehicle control • 2. […] 300 nM GPR174 inhibitor Compound #10 • 4.
On days 4 and 7 (FIG. 4) or days 3, 5, and 7 (FIG. 5), cultures were washed and seeded at 0.5 cells million per well with the same GPR174 and A2A inhibitor conditions, and with 10 ng/mL IL-7 and 10 ng/mL IL-15.
After 18 hours of culture, supernatants were harvested and analyzed for IL-2 (MesoScale Discovery).

human CD8 T cells [4] = assay: Example 5: T cell number increase during 10-day expansion; format: cell-based
Experimental: (§2) DMSO vehicle control • 2. […] 500 μM Rp-8-Br-cAMPS • 4. […] 0.5 μM doramapimod • 6. Media control
(§3) or the following individual conditions for the experiment shown in FIG. 8, each ±0.5 μM doramapimod: • 1. DMSO vehicle control • 2. 500 μM Rp-8-Br-cAMPS • 3. […] 5 μM ESI-09
(§4) On days 3, 5, and 7, cultures were washed and seeded at 0.5 cells million per well with the same small molecule inhibitor conditions, and with IL-7 and IL-15. On day 10, cells were washed twice (12 mL media each), and restimulated in quadruplicate in 96-well round-bottom plates with the following conditions: • 0.1 mL X-VIVO™ 15 media (Lonza) • 0.05 million cells from each condition • 0.1 million Human T-Activator CD3/CD28 Dynabeads® (ThermoFisher)

human CD8 T cells [5] = assay: Example 5: human CD8 T cell expansion with cAMP pathway and p38 inhibitors, IL-2 after restimulation; format: cell-based; details: 500 μM Rp-8-Br-cAMPS, 0.5 μM doramapimod; for IL-2 production following restimulation, fold above vehicle control (FIG. 8): 10 μM HJC-0197, 5 μM ESI-09
Experimental: as §2, §3, §4
(§5) After overnight culture, supernatants were harvested and analyzed for IL-2 content (MesoScale Discovery).

human CD8 T cells [6] = assay: Example 4: human CD8 T cell expansion with GPR174, A2A, PKA or EPAC inhibitors, IL-2 after restimulation; format: cell-based; details: 300 nM Compound #10, 100 nM ZM-241385, 500 μM Rp-8-Br-cAMPS, 5 μM ESI-09; 5.5 hours restimulation
Experimental: Purified human CD8 T cells were cultured in 24-well plates with the following conditions per well: • 2 mL X-VIVO™ 15 media (Lonza) • 0.4 million human CD8 T cells (Donor A) • 2 million Human T-Activator CD3/CD28 Dynabeads® (ThermoFisher) • 10 ng/mL human IL-7 (R&D Systems) • 10 ng/mL human IL-15 (R&D Systems)
and the following individual conditions, ±300 nM Compound #10: • 1. DMSO vehicle control • 2. […] 500 μM Rp-8-Br-cAMPS • 4. 5 μM ESI-09
On days 3, 5, and 7, cultures were washed and seeded at 0.5 cells million per well with the same small molecule inhibitor conditions, and with IL-7 and IL-15.
After 5.5 hours of culture, supernatants were harvested and analyzed for IL-2 content (MesoScale Discovery).

[7] = tested on: OT-I TCR transgenic CD8 T cells; assay: Example 8: OT-I CD8 T cell 9-day expansion with PKA, p38, PI3Kδ inhibitors, IL-2 after restimulation with EG7 cells; format: cell-based, mouse
Experimental: DMSO vehicle control • 2. 0.5 μM doramapimod • 3. 500 μM Rp-8-Br-cAMPS • 4. 0.5 μM doramapimod+500 μM Rp-8-Br-cAMPS • 5. 1 μM idelalisib • 6. 1 μM idelalisib+0.5 μM doramapimod • 7. 1 μM idelalisib+500 μM Rp-8-Br-cAMPS • 8. 1 μM idelalisib+0.5 μM doramapimod+500 μM Rp-8-Br-cAMPS
On days 2, 4, 6, and 8, cells were counted, washed and reseeded at 0.5 million per well in 2 mL media with the same 8 conditions and with recombinant mouse IL-2 and IL-7 (5 ng/mL each). […] Cells were also washed three times (12 mL media each), and restimulated in quintuplicate in 96-well round-bottom plates with the following conditions: • 0.1 mL RP10 media • 0.05 million OT-I T cells from each condition • 0.05 million EG7 cells
as §5

EG7 tumors = assay: Example 7: adoptive transfer of inhibitor-precultured OT-1 T cells into EG7 tumor-bearing mice; format: in vivo, mouse
Experimental: (§6) and the following individual conditions: • 1. DMSO vehicle control • 2. 0.2 μM doramapimod • 3. 500 μM Rp-8-Br-cAMPS • 4. 0.2 μM doramapimod+500 μM Rp-8-Br-cAMPS
On day 6 cells were seeded in 6-well plates with […] per well, and on day 8 cells were seeded in T75 flasks in 30 mL media to obtain enough cells to transfer into EG7 tumor-bearing mice.
C57BL/6 female mice were implanted with 6 million EG7 tumor cells subcutaneously on day 4 of the OT-1 T cell expansion. On day 6 of tumor growth (day 10 of OT-1 T cell expansion) OT-1 T cells were washed and injected retro-orbitally into tumor bearing mice that had been sorted into 4 groups with equal tumor volume distributions (n=8). Via retroorbital injection, mice received 2 million OT1 T cells of each of the 4 culture conditions. Tumor volume (mm^3) was calculated as 0.5×(length×width^2), where length represents the largest tumor diameter and width represents the perpendicular tumor diameter. Mice were euthanized when the sum of the two measurements exceeded 30 mm.

[8] = tested on: OT-I TCR transgenic CD8 T cells; assay: Example 6: immunophenotyping of OT-I T cells on day 8; format: cell-based, mouse; details: 8 days of culture
Experimental: as §6
On days 2, 4, 6, and 8, cells were counted, washed, and reseeded at 0.5 million per well in 2 mL media with the same 4 doramapimod/Rp-8-Br-cAMPS conditions and with recombinant mouse IL-2 and IL-7 (5 ng/mL each). On day 8, cells were immunophenotyped with the following antibodies: anti-CD8 BV570, anti-CD62L eFluor450, anti-TCF1/TCF7 PE, anti-CD39 PerCP-eFluor710, anti-CD69 BV605, anti-PD-1 BV711, anti-CTLA-4 APC, and LIVE/DEAD™ Fixable Green Dead Cell Stain.

[9] = tested on: OT-I TCR transgenic CD8 T cells; assay: Example 6: OT-I CD8 T cell expansion with PKA and p38 inhibitors, IL-2 after restimulation with EG7 cells; format: cell-based, mouse; details: 0.2 μM doramapimod, 500 μM Rp-8-Br-cAMPS
Experimental: as §6
On day 8, cells were immunophenotyped with the following antibodies: anti-CD8 BV570, anti-CD62L eFluor450, anti-TCF1/TCF7 PE, anti-CD39 PerCP-eFluor710, anti-CD69 BV605, anti-PD-1 BV711, anti-CTLA-4 APC, and LIVE/DEAD™ Fixable Green Dead Cell Stain.
as §5

[10] = tested on: OT-I TCR transgenic CD8 T cells; assay: Example 9: OT-I CD8 T cell 10-day expansion, immunophenotyping and IL-2 capacity; format: cell-based, mouse
[11] = Idelalisib (agent together with 1 μM idelalisib)

T1 sequence (Q9BXC1 whole entry): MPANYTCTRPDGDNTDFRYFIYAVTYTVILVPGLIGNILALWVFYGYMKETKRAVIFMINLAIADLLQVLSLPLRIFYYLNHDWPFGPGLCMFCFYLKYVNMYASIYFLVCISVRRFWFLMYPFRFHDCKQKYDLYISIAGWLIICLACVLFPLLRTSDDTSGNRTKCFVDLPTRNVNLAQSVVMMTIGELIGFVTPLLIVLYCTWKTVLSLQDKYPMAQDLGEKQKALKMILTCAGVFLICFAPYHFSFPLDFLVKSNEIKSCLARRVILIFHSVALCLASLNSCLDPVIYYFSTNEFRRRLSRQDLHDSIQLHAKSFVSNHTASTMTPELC

SMILES: CCOC(=O)N1CCN(c2cc(N3CCC(C)CC3)c(F)cc2[N+](=O)[O-])CC1 [Compound 1]
- pEC50 (GPR174 [1]): 5.82 and 6.05

SMILES: CC(=O)N1CCN(c2cc(N3CCCCC3)c(F)cc2[N+](=O)[O-])CC1 [Compound 2]
- pEC50 (GPR174 [1]): 5.48 and 5.52 and 5.29

SMILES: CC(=O)c1ccc(N2CCN(C(=O)c3ccc(F)cc3)CC2)c(F)c1 [Compound 3]
- pEC50 (GPR174 [1]): 5.39
- Human GPR174 CRE Activity (type of modulation) (GPR174 [2]): Antagonist or allosteric modulator

SMILES: CCCC(=O)c1ccc(N2CCN(S(=O)(=O)c3ccc(C)cc3)CC2)c(F)c1 [Compound 4]
- pEC50 (GPR174 [1]): 6.70
- Human GPR174 CRE Activity (type of modulation) (GPR174 [2]): Antagonist
- competition with the GPR174 agonist LysoPS (GPR174 [2]): found to compete with the GPR174 agonist LysoPS

SMILES: O=C(c1ccccc1)N1CCN(c2cc(N3CCCCC3)c(F)cc2[N+](=O)[O-])CC1 [Compound 6]
- pEC50 (GPR174 [1]): 5.85

SMILES: Cc1ccc(-c2nnc(Nc3ccccc3)c3ccccc23)cc1S(N)(=O)=O [Compound 19]
- Human GPR174 CRE Activity (type of modulation) (GPR174 [2]): Antagonist or allosteric modulator

SMILES: Cc1ccccc1Nc1nnc(-c2ccc(C)c(S(N)(=O)=O)c2)c2ccccc12 [Compound 20]
- pEC50 (GPR174 [1]): 5.30
- Human GPR174 CRE Activity (type of modulation) (GPR174 [2]): Antagonist or allosteric modulator

SMILES: Cc1cc(Cc2ccc(NC(=O)c3cccs3)c(C)c2)ccc1NC(=O)c1cccs1 [Compound 21]
- pEC50 (GPR174 [1]): 5.57
- Human GPR174 CRE Activity (type of modulation) (GPR174 [2]): Antagonist or allosteric modulator

SMILES: CCOc1ccc(C2C3=C(CCCC3=O)NC3=C2C(=O)c2ccccc23)cc1 (centres unmarked) [Compound 23]
- pEC50 (GPR174 [1]): 5.54

SMILES: CC(C)Oc1ccc(C2C3=C(CCCC3=O)NC3=C2C(=O)c2ccccc23)cc1 (centres unmarked) [Compound 49]
- IL-2 production following restimulation, fold vs vehicle (FIG. 5) (human CD8 T cells [3]): 1.9 fold

SMILES: O=C(N/N=C/c1cc(Cl)ccc1O)c1ccncc1 [Compound 57]
- Human GPR174 CRE Activity (type of modulation) (GPR174 [2]): Antagonist or allosteric modulator

SMILES: Cc1cc(C(=O)N/N=C/c2cc(Br)ccc2O)c(C)o1 [Compound 58]
- Human GPR174 CRE Activity (type of modulation) (GPR174 [2]): Antagonist or allosteric modulator

SMILES: S=C(NCc1ccco1)Nc1ccc(I)cc1 [Compound 59]
- Human GPR174 CRE Activity (type of modulation) (GPR174 [2]): NM (“NM” refers to “non-modulator.”)

SMILES: CC(C)(C)c1cc(C(=O)/C(C#N)=N/Nc2cccc(Cl)c2)no1 [ESI-09]
- T cell growth during the 10-day culture relative to vehicle-treated cells (FIG. 8) (human CD8 T cells [4]): attenuated T cell expansion
- IL-2 production following restimulation, fold above vehicle control (FIG. 8) (human CD8 T cells [5]): absent or negligible
- IL-2 production following restimulation, fold increase vs vehicle (FIG. 6) (human CD8 T cells [6]): no impact on IL-2 production

SMILES: Cc1ccc(C)c(CSc2nc(C3CCCC3)c(C#N)c(=O)[nH]2)c1 [HJC-0197]
- IL-2 production following restimulation, fold above vehicle control (FIG. 8) (human CD8 T cells [5]): absent or negligible

SMILES: Cc1ccc(-n2nc(C(C)(C)C)cc2NC(=O)Nc2ccc(OCCN3CCOCC3)c3ccccc23)cc1 [doramapimod]
- T cell growth during the 10-day culture relative to vehicle-treated cells (FIG. 8) (human CD8 T cells [4]): very little effect on cell growth
- fold-increase in T cell number during the 10-day expansion (FIG. 7) (human CD8 T cells [4]; vehicle and media controls approximately 50-fold): approximately 50 fold
- Fold-change in IL-2 production relative to Vehicle control [7, 11]: 65.0
- Fold-change in IL-2 production relative to Vehicle control ([7]; column Vehicle (without idelalisib), 0.5 μM doramapimod, 500 μM Rp-8-Br-cAMPS): 2.2
- IL-2 production following restimulation, fold above vehicle control (FIG. 8) (human CD8 T cells [5]): 1.8 fold
- IL-2 production following restimulation, fold vs vehicle (FIG. 7) (human CD8 T cells [5]; GPR174+A2A inhibitors, overnight restimulation): 3.2 fold
- tumor growth / tumor volume after transfer of precultured OT-1 T cells (EG7 tumors; 2 million OT-1 T cells expanded 10 days with 0.2 μM doramapimod and/or 500 μM Rp-8-Br-cAMPS, retro-orbital, relative to vehicle control cells): significantly halted and delayed tumor growth
- survival of tumor-bearing mice (EG7 tumors; OT-1 T cells precultured with inhibitor(s), relative to vehicle group): intermediate survival times
- increase in cells expressing both CD62L and TCF1/TCF7 relative to vehicle control [8]: smaller increases
- percentage of OT-I T cells expressing both CD39 and CD69 ([8]; vehicle 22%): smaller reductions
- IL-2 production from 8-day OT-I cultures, fold vs vehicle control ([9]; day 8 restimulation with EG7 cells): 4.9 fold
- IL-2 production from 10-day OT-I cultures, fold over vehicle control ([9]; day 10 restimulation with EG7 cells): 6.8 fold

SMILES: CC[C@H](Nc1ncnc2[nH]cnc12)c1nc2cccc(F)c2c(=O)n1-c1ccccc1 [idelalisib]
- Fold-change in IL-2 production relative to Vehicle control [7, 11]: 24.0
- TCF-1 positive cells ([10]; Vehicle 10%): 27%
- CTLA-4 positive cells ([10]; Vehicle 41%): 28%
- PD-1 positive cells ([10]; Vehicle 75%): 75%
- CD39 positive cells ([10]; Vehicle 87%): 63%
- TIM-3 positive cells ([10]; Vehicle 88%): 60%
- CD69 positive cells ([10]; Vehicle 95%): 74%
